{"source": "paper PMC10753557", "about": "“Design and Evaluation of Synthesized Pyrrole Derivatives as Dual COX-1 and COX-2 Inhibitors Using FB-QSAR Approach” (ACS Omega, 2023)", "key": {"COX-1": {"target": "T1, COX-1 (Ovis aries, UniProt P05979)", "T1 construct": "purchased", "T1 sequence (P05979 25-600)": "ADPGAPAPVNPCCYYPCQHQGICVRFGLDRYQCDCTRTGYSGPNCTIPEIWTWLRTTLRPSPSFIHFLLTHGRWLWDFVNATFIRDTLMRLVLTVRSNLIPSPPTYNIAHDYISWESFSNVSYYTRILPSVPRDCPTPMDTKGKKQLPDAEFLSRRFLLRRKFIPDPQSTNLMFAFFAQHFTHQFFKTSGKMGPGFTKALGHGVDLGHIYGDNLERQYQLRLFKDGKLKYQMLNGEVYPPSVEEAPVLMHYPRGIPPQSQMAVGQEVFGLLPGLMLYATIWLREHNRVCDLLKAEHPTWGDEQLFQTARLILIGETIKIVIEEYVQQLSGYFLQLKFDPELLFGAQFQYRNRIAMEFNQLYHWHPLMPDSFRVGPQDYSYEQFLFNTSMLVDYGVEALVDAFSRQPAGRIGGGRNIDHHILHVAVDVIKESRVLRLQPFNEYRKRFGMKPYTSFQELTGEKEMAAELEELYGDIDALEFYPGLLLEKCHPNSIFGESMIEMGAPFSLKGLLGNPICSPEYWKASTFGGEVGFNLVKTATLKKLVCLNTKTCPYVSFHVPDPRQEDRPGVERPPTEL", "assay": "COX-1 fluorometric inhibitor screening kit (BioVision)", "type": "biochemical", "protocol": "(§1) To conduct the inhibition assay, the kit components were prepared as follows: The COX-1/COX-2 enzyme solutions were created by reconstituting the lyophilized powder with 110 μL of ddH2O. A diluted COX cofactor was formed by combining a COX assay buffer (398 μL) and a COX cofactor (2 μL). The arachidonic acid/NaOH solution was diluted with 5 μL of arachidonic acid, 5 μL of NaOH, and 90 μL of ddH2O. These solutions were combined to generate the reaction mixture (80 μL) for each well, consisting of the COX assay buffer (76 μL), the COX probe (1 μL), the diluted COX cofactor (2 μL), and the COX-1/COX-2 enzyme solution (1 μL). Test compounds (10 μL) were added, followed by incubation for 5–10 min at 25 °C. To […] the reaction, 10 μL of diluted arachidonic acid/NaOH solution was added. […] The assay was performed in quadruplicate with a blank and control, testing all inhibitor concentrations. The mean ± standard deviation (SD) of the percentage inhibition results were calculated, and IC50 values were determined using GraphPad PRISM software (version 5.0) by plotting the percentage inhibition against the log concentration. Additionally, the selectivity index (SI) was calculated by dividing IC50(COX-1) by IC50(COX-2)."}, "COX-2": {"target": "T2, COX-2 (Homo sapiens, UniProt P35354)", "T2 construct": "purchased BioVision", "T2 sequence (P35354 18-604)": "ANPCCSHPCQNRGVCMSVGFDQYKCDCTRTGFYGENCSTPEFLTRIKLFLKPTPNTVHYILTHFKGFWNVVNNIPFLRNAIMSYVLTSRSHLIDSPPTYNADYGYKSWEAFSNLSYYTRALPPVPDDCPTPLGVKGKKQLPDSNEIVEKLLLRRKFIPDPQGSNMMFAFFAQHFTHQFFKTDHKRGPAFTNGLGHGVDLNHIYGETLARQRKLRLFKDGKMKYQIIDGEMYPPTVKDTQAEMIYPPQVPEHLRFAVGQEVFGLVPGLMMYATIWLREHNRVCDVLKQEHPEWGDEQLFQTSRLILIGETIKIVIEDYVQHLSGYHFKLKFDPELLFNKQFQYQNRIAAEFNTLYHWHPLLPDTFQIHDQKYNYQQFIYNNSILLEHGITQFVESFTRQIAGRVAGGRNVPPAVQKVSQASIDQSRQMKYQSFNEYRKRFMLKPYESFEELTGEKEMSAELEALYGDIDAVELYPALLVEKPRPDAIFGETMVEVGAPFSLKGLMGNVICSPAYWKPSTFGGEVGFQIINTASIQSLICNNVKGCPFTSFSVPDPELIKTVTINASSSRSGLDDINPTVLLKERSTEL", "assay": "COX-2 fluorometric inhibitor screening kit (BioVision)", "type": "biochemical", "protocol": "as §1"}, "[1]": {"settings": "1 μM compound, mean ± SD, quadruplicate"}, "[2]": {"settings": "10 μM compound, mean ± SD, quadruplicate"}}}
{"smiles": "CCOC(=O)c1cc(-c2c(OC)cccc2OC)n(CC(=O)O)c1C", "note": "[Compound 4g]", "values": [{"measurement": "COX-1% Inhibition 1 μM", "setting": "COX-1; [1]", "value": "84.517 ± 2.036", "unit": "%"}, {"measurement": "COX-1% Inhibition 10 μM", "setting": "COX-1; [2]", "value": "92.366 ± 2.731", "unit": "%"}, {"measurement": "experimental activity on COX-1 (pIC50)", "setting": "COX-1; BioVision's kit protocol", "value": 6.93}, {"measurement": "IC50", "setting": "COX-1; fluorometric kit", "value": "117 ± 5", "unit": "nM"}, {"measurement": "COX-2% Inhibition 1 μM", "setting": "COX-2; [1]", "value": "83.033 ± 1.878", "unit": "%"}, {"measurement": "COX-2% Inhibition 10 μM", "setting": "COX-2; [2]", "value": "90.967 ± 2.022", "unit": "%"}, {"measurement": "experimental activity on COX-2 (pIC50)", "setting": "COX-2; BioVision's kit protocol", "value": 6.7258}, {"measurement": "COX subtype selectivity", "setting": "COX-2; COX-1 vs COX-2, classification in conclusions", "value": "nonselective inhibitors"}, {"measurement": "IC50", "setting": "COX-2; fluorometric kit", "value": "188 ± 8", "unit": "nM"}]}
{"smiles": "CS(=O)(=O)Nc1ccc([N+](=O)[O-])cc1Oc1ccccc1", "note": "[nimesulide, reference compound]", "values": [{"measurement": "inhibition at 1 µM", "setting": "COX-2; read-out: COX-2% Inhibition 1 μM", "value": "89.6 ± 1.05", "unit": "%"}, {"measurement": "inhibition at 10 µM", "setting": "COX-2; read-out: COX-2% Inhibition 10 μM", "value": "97.8 ± 1.21", "unit": "%"}]}
